Among the data in patent US20050009840A1 (SUGEN, INC., priority 2003, published 2005) are IC50 values, retold here.

For the assay, the target named is T1, Met kinase domain (GST fusion protein) (Homo sapiens, UniProt P08581).
T1 construct: Purified GST fusion protein containing the Met kinase domain
Briefly: Met transphosphorylation assay (ELISA, poly(glu-tyr) substrate).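 Further: Cell-free ELISA with plate-bound poly(Glu:Tyr 4:1) phosphorylated by GST-fused Met kinase domain plus ATP and Mn2+, phosphotyrosine detected by anti-phosphotyrosine antibody with HRP and ABTS read-out.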 It counts as biochemical. Particulars: read-out: Met IC50. In general terms: In an ELISA, binding on a coated surface is turned into a signal by an enzyme label.

Where [1] appears, read: plain numbers in column Met IC50 (μM) of Table 2.

Read-outs that look alike come from different tables or passages of the source.

T1 sequence (P08581 1078-1345 limits assumed): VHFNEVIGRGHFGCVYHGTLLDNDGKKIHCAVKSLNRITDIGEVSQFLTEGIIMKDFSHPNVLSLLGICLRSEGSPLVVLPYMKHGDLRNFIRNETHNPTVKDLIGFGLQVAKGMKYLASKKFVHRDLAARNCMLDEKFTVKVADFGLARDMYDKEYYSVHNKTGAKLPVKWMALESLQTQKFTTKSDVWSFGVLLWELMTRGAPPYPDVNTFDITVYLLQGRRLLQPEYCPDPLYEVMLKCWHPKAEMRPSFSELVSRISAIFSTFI

Turning to `CC(Oc1cc(C#CCNC(=O)CN2CCOCC2)cnc1N)c1c(Cl)ccc(F)c1Cl` (centres unmarked) [Example I-425, N-(3-{6-Amino-5-[1-(2,6-dichloro-3-fluoro-phenyl)-ethoxy]-pyridin-3-yl}-prop-2-ynyl)-2-morpholin-4-yl-acetamide], the IC50 (usually the midpoint of a concentration-inhibition curve) under setting [1] is 0.027 µM.

As for `CC(Oc1cc(-c2cccc(C(=O)N3CCC[C@H]3CN3CCCC3)c2)cnc1N)c1c(Cl)cccc1Cl` (stereo partly drawn) [Example I-391, (3-{6-Amino-5-[1-(2,6-dichloro-phenyl)-ethoxy]-pyridin-3-yl}-phenyl)-((S)-2-pyrrolidin-1-ylmethyl-pyrrolidin-1-yl)-methanone], the IC50 under setting [1] stood at 0.098 µM.

`CN1CCN(C(=O)c2ccc(-c3cnc(N)c(OCc4ccccc4Cl)c3)cc2)CC1` [Example I-156, {4-[6-Amino-5-(2-chloro-benzyloxy)-pyridin-3-yl]-phenyl}-(4-methyl-piperazin-1-yl)-methanone]: the IC50 came to 2.1 µM.

`Nc1ncc(-c2cccc3[nH]ccc23)cc1OCc1c(F)cccc1F` [Example I-119, 3-(2,6-Difluoro-benzyloxy)-5-(1H-indol-4-yl)-pyridin-2-ylamine]: the IC50 amounted to 5.8 µM.

Take `CN(C)CCS(=O)(=O)Nc1ccc(-c2cnc(N)c(OCc3c(F)ccc(F)c3Cl)n2)cc1` [II-16, 2-Dimethylamino-ethanesulfonic acid {4-[5-amino-6-(2-chloro-3,6-difluoro-benzyloxy)-pyrazin-2-yl]-phenyl}-amide]: the IC50 was 0.91 µM.

Turning to `CC(Oc1cc(C#CCNC(=O)N2CCC(N3CCCC3)CC2)cnc1N)c1c(Cl)ccc(F)c1Cl` (centres unmarked) [Example I-414, 4-Pyrrolidin-1-yl-piperidine-1-carboxylic acid (3-{6-amino-5-[1-(2,6-dichloro-3-fluoro-phenyl)-ethoxy]-pyridin-3-yl}-prop-2-ynyl)-amide], the IC50 under setting [1] came out at 0.058 µM.

`CC(Oc1nc(-c2cccc(C(=O)N3CCN(C)CC3)c2)cnc1N)c1c(Cl)cccc1Cl` (centres unmarked) [II-181, (3-{5-Amino-6-[1-(2,6-dichloro-phenyl)-ethoxy]-pyrazin-2-yl}-phenyl)-(4-methyl-piperazin-1-yl)-methanone]: the IC50 came to 0.25 µM.

With `CC(Oc1nc(-c2cccc(C(=O)NCCCN3CCCC3)c2)cnc1N)c1c(Cl)cccc1Cl` (centres unmarked) [II-178, 3-{5-Amino-6-[1-(2,6-dichloro-phenyl)-ethoxy]-pyrazin-2-yl}-N-(3-pyrrolidin-1-yl-propyl)-benzamide], the IC50 was 0.34 µM.

Turning to `CC(Oc1nc(-c2ccc(NC(=O)NC3CCN(C)CC3)cc2)cnc1N)c1c(Cl)ccc(F)c1Cl` (centres unmarked) [II-192, 1-(4-{5-Amino-6-[1-(2,6-dichloro-3-fluoro-phenyl)-ethoxy]-pyrazin-2-yl}-phenyl)-3-(1-methyl-piperidin-4-yl)-urea], the IC50 was 0.052 µM.

With `CS(=O)(=O)Nc1ccc(-c2cnc(N)c(OCc3c(Cl)cccc3Cl)c2)cc1` [Example I-13, N-{4-[6-Amino-5-(2,6-dichloro-benzyloxy)-pyridin-3-yl]-phenyl}-methanesulfonamide], the half-inhibitory concentration (IC50) amounted to 0.44 µM.

Take `Nc1ncc(-c2cncnc2)cc1OCc1ccccc1Cl` [Example I-494, 3-(2-Chloro-benzyloxy)-5-pyrimidin-5-yl-pyridin-2-ylamine]: the IC50 under setting [1] was determined as 19.3 µM.

In the case of `Nc1ccc(-c2cnc(N)c(OCc3c(Cl)cccc3Cl)n2)cc1` [II-5, 5-(4-Amino-phenyl)-3-(2,6-dichloro-benzyloxy)-pyrazin-2-ylamine], the IC50 turned out to be 0.94 µM.

Consider `CC(Oc1cc(C#CCN(C)C)cnc1N)c1c(Cl)ccc(F)c1Cl` (centres unmarked) [Example I-422, 3-[1-(2,6-Dichloro-3-fluoro-phenyl)-ethoxy]-5-(3-dimethylamino-prop-1-ynyl)-pyridin-2-ylamine], for which, under setting [1], the IC50 stood at 0.071 µM.

For `CC(=O)N1CCN(CCNC(=O)c2ccc(-c3cnc(N)c(OC(C)c4c(Cl)cccc4Cl)n3)cc2)CC1` (centres unmarked) [II-175, N-[2-(4-Acetyl-piperazin-1-yl)-ethyl]-4-{5-amino-6-[1-(2,6-dichloro-phenyl)-ethoxy]-pyrazin-2-yl}-benzamide], the IC50 is 0.28 µM.
